This is an account of results in patent US20200022370A1, “MICROBIOCIDAL OXADIAZOLE DERIVATIVES” (SYNGENTA PARTICIPATIONS AG, priority 2016, published 2020).

The test system of data set [1] is Phakopsora pachyrhizi. Put plainly: Phakopsora pachyrhizi / soybean / leaf disc preventative (Asian soybean rust). It is filed as in vivo. To be noted: foliar, 200 ppm in the applied formulation, soybean leaf disks, inoculated one day after application, vs untreated, 12 to 14 days after application, read-out: disease control. In outline: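 Soybean leaf discs on water agar sprayed with formulated compound diluted in water, then inoculated one day later with spore suspension on the lower surface. Held 24-36 h dark at 20 °C, 75% rh, then 12 h light/day; percent disease control versus untreated scored 12-14 days after application.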

In data set [2] the test system is Glomerella lacenarium (Colletotrichum lacenarium). Put plainly: Glomerella lacenarium (Colletotrichum lacenarium) liquid culture / cucumber / preventative (anthracnose). It is filed as cell-based. The following applies: 20 ppm, liquid culture in PDB, 24° C., inhibition of growth measured photometrically 3 to 4 days after application, vs untreated, read-out: disease control. The procedure, abridged: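 Cryopreserved conidia in potato dextrose broth were added to test compound in a 96-well microtiter plate and incubated at 24 °C. Growth inhibition read photometrically 3–4 days after application, as percent activity versus untreated check.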

Data set [3] relates to Uromyces viciae-fabae. Briefly: Uromyces viciae-fabae / field bean / leaf disc preventative (faba-bean rust). It is filed as in vivo. To be noted: foliar, 288 h, 100 ppm in the applied formulation, field bean leaf discs, inoculated two hours after application, vs untreated, 12 days after application, read-out: disease control. As to the method: Leaf disks or leaf segments of various plant species are cut from plants grown in a greenhouse. The cut leaf disks or segments are placed in multiwell plates (24-well format) onto water agar. The leaf disks are sprayed with a test solution before (preventative) or after (curative) inoculation. Compounds to be tested are prepared as DMSO solutions (max. 10 mg/ml) which are diluted to the appropriate concentration with 0.025% Tween20 just before spraying. The inoculated leaf disks or segments are incubated under defined conditions (temperature, relative humidity, light, etc.) according to the respective test system. A single evaluation of disease level is carried out 3 to 14 days after inoculation, depending on the pathosystem. Percent disease control relative to the untreated check leaf disks or segments is then calculated.
Example 5: Fungicidal Activity Against Uromyces viciae-fabael Field Bean/Leaf Disc Preventative (Faba-Bean Rust)
Field bean leaf discs are placed on water agar in multiwell plates (96-well format) and 10 μl of the Formulated test compound diluted in acetone and a spreader pipetted onto the leaf disc. Two hours after application leaf discs are inoculated by spraying a spore suspension on the lower leaf surface. The leaf discs are incubated in a climate cabinet at 22° C. with 18 hour day and 70% relative humidity. The activity of a compound is assessed as percent disease control compared to untreated when an appropriate level of disease damage appears in untreated check leaf disks (12 days after application).
The following compounds at 100 ppm in the applied Formulation give at least 80% disease control in this test when compared to untreated control leaf discs under the same conditions, which show extensive disease development.

Data set [4] has as its system Puccinia recondita f. Sp. Tritici. Briefly: Puccinia recondita f. sp. tritici / wheat / leaf disc preventative (brown rust). It is filed as in vivo. To be noted: foliar, 200 ppm in the applied formulation, wheat leaf segments cv. Kanzler, inoculated 1 day after application, vs untreated, 7 to 9 days after application, read-out: disease control. In outline: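 Segments of cv. Kanzler wheat on agar received a spray of compound formulation diluted in water and were inoculated with spores one day afterwards. Kept at 19° C and 75% rh under 12 h/12 h light; disease control relative to untreated checks rated at 7–9 days post-application.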

Data set [5] shares this test system. Put plainly: Puccinia recondita f. sp. tritici / wheat / leaf disc curative (brown rust). It is filed as in vivo. The following applies: foliar, 200 ppm in the applied formulation, wheat leaf segments cv. Kanzler, compound applied 1 day after inoculation, vs untreated, 6 to 8 days after application, read-out: disease control. The procedure, abridged: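 Wheat leaf segments (cv. Kanzler) on agar inoculated with brown rust spores, held dark at 19 °C/75% RH, then sprayed 1 day post-inoculation with formulated compound diluted in water (curative). Incubated at 19 °C/75% RH, 12 h light/12 h dark; percent disease control versus untreated scored 6–8 days after application.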

As to `O=C(Nc1ccc(-c2noc(C(F)(F)F)n2)cc1)c1ccccc1C(F)(F)F` [Compound 1.1, 2-(trifluoromethyl)-N-[4-[5-(trifluoromethyl)-1,2,4-oxadiazol-3-yl]phenyl]benzamide], the melting point is 162 to 163 °C. In addition, the pest or weed control at 200 ppm in data set [1] is not below 80%. In addition, the inhibition of growth at 20 ppm in data set [2] was not below 80%. Also, the pest or weed control at 100 ppm in data set [3] is not below 80%.
`O=C(Nc1ccc(-c2noc(C(F)(F)F)n2)cc1)c1cn[nH]c1` [Compound 1.11, N-[4-[5-(trifluoromethyl)-1,2,4-oxadiazol-3-yl]phenyl]-1H-pyrazole-4-carboxamide] had a melting point of 200 to 204 °C. Also, the pest or weed control at 100 ppm in data set [3] was not below 80%.
As for `O=C(Nc1ccc(-c2noc(C(F)(F)F)n2)cc1)C1CCCO1` (centres unmarked) [Compound 1.41, N-[4-[5-(trifluoromethyl)-1,2,4-oxadiazol-3-yl]phenyl] tetrahydrofuran-2-carboxamide], the melting point is 115 to 120 °C. In addition, the pest or weed control at 200 ppm in data set [4] is not below 80%. Moreover, in data set [1], the pest or weed control at 200 ppm is not below 80%. The inhibition of growth at 20 ppm in data set [2] was not below 80%. Moreover, the pest or weed control at 100 ppm in data set [3] is not below 80%. In addition, in data set [5], the pest or weed control at 200 ppm is not below 80%.
`O=C(Nc1ccc(-c2noc(C(F)(F)F)n2)cn1)c1ccccc1` [Compound 1.46, N-[5-[5-(trifluoromethyl)-1,2,4-oxadiazol-3-yl]-2-pyridyl]benzamide] gave a melting point of 172.8 to 174.3 °C. The pest or weed control at 200 ppm in data set [1] was not below 80%. In addition, the pest or weed control at 100 ppm in data set [3] is not below 80%.
Compound `CC(C)(C)NC(=O)CN(C(=O)C1CC1)c1ccc(-c2noc(C(F)(F)F)n2)cc1` [Compound 1.60, N-[2-(tert-butylamino)-2-oxo-ethyl]-N-[4-[5-(trifluoromethyl)-1,2,4-oxadiazol-3-yl]phenyl]cyclopro-panecarboxamide] gave a melting point of 110 to 112 °C. In addition, in data set [2], the inhibition of growth at 20 ppm is not below 80%. The pest or weed control at 100 ppm in data set [3] is not below 80%.
`COCC(=O)N(c1ccc(-c2noc(C(F)(F)F)n2)cc1)C(C)C(=O)NC(C)(C)C` (centres unmarked) [Compound 1.62, N-tert-butyl-2-[N-(2-methoxyacetyl)-4-[5-(trifluoromethyl)-1,2,4-oxadiazol-3-yl]anilino] propanamide] came in with a melting point of 115 to 117 °C. For the same compound, the pest or weed control at 100 ppm in data set [3] is not below 80%.
For the compound `CCN(OC)C(=O)Nc1ccc(-c2noc(C(F)(F)F)n2)cc1` [Compound 1.67, 1-ethyl-1-methoxy-3-[4-[5-(trifluoromethyl)-1,2,4-oxadiazol-3-yl]phenyl]urea], the melting point lay in the range of 113 to 116 °C. Besides, the pest or weed control at 200 ppm in data set [4] was not below 80%. For the same compound, the pest or weed control at 200 ppm in data set [1] is not below 80%. For the same compound, the inhibition of growth at 20 ppm in data set [2] is not below 80%. Also, the pest or weed control at 200 ppm in data set [5] is not below 80%.
Turning to `COCCN(OC)C(=O)Nc1ccc(-c2noc(C(F)(F)F)n2)cc1` [Compound 1.68, 1-methoxy-1-(2-methoxyethyl)-3-[4-[5-(trifluoromethyl)-1,2,4-oxadiazol-3-yl]phenyl]urea], the melting point fell in the range of 89 to 92 °C. The pest or weed control at 200 ppm in data set [4] is not below 80%. Besides, the pest or weed control at 200 ppm in data set [1] is not below 80%. For the same compound, the inhibition of growth at 20 ppm in data set [2] was not below 80%. Also, the pest or weed control at 200 ppm in data set [5] is not below 80%.
With `C=C(C)CONC(=O)Nc1ccc(-c2noc(C(F)(F)F)n2)cc1` [Compound 1.70, 1-(2-methylallyloxy)-3-[4-[5-(trifluoromethyl)-1,2,4-oxadiazol-3-yl]phenyl]urea], the melting point lay in the range of 134 to 137 °C. In addition, the pest or weed control at 200 ppm in data set [4] was not below 80%. The pest or weed control at 200 ppm in data set [1] was not below 80%. For the same compound, the inhibition of growth at 20 ppm in data set [2] was not below 80%. Moreover, the pest or weed control at 200 ppm in data set [5] was not below 80%.
For the compound `CON1CCN(C(=O)Nc2ccc(-c3noc(C(F)(F)F)n3)cc2)CC1` [Compound 1.130, 4-methoxy-N-[4-[5-(trifluoromethyl)-1,2,4-oxadiazol-3-yl]phenyl]piperazine-1-carboxamide], the melting point was in the range of 164 to 167 °C. Besides, the pest or weed control at 200 ppm in data set [4] was not below 80%. For the same compound, the pest or weed control at 200 ppm in data set [1] was not below 80%. The inhibition of growth at 20 ppm in data set [2] was not below 80%. The pest or weed control at 200 ppm in data set [5] was not below 80%.
`C=C(C)CON(C)C(=O)Nc1ccc(-c2noc(C(F)(F)F)n2)cc1` [Compound 1.131, 1-methyl-1-(2-methylallyloxy)-3-[4-[5-(trifluoromethyl)-1,2,4-oxadiazol-3-yl]phenyl]urea] registered a melting point of 65 to 68 °C. Moreover, the pest or weed control at 200 ppm in data set [4] is not below 80%. For the same compound, in data set [1], the pest or weed control at 200 ppm was not below 80%. Besides, the inhibition of growth at 20 ppm in data set [2] is not below 80%. Further, the pest or weed control at 200 ppm in data set [5] was not below 80%.
Consider `CONC(=O)N(C)c1ccc(-c2noc(C(F)(F)F)n2)cc1` [Compound 1.132, 3-methoxy-1-methyl-1-[4-[5-(trifluoromethyl)-1,2,4-oxadiazol-3-yl]phenyl]urea], for which the melting point lay within 73 to 76 °C. Also, in data set [4], the pest or weed control at 200 ppm was not below 80%. Further, the inhibition of growth at 20 ppm in data set [2] was not below 80%. In addition, the pest or weed control at 200 ppm in data set [5] is not below 80%.
As to `COCC(=O)Nc1ccc(-c2noc(C(F)(F)F)n2)cc1` [Compound 2.1, 2-methoxy-N-[4-[5-(trifluoromethyl)-1,2,4-oxadiazol-3-yl]phenyl]acetamide], the melting point fell in the range of 93 to 94 °C. In addition, in data set [4], the pest or weed control at 200 ppm is not below 80%. Further, the pest or weed control at 200 ppm in data set [1] was not below 80%. For the same compound, the inhibition of growth at 20 ppm in data set [2] is not below 80%. In data set [3], the pest or weed control at 100 ppm was not below 80%. Also, the pest or weed control at 200 ppm in data set [5] was not below 80%.
In turn, `O=C(Nc1ccc(-c2noc(C(F)(F)F)n2)cc1)C(F)(F)F` [Compound 2.2, 2,2,2-trifluoro-N-[4-[5-(trifluoromethyl)-1,2,4-oxadiazol-3-yl]phenyl]acetamide] yielded a melting point of 146 to 147 °C. In addition, in data set [2], the inhibition of growth at 20 ppm was not below 80%. In addition, in data set [3], the pest or weed control at 100 ppm was not below 80%.
Compound `C=CCONC(=O)Nc1ccc(-c2noc(C(F)(F)F)n2)cc1` [Compound 2.3, 1-allyloxy-3-[4-[5-(trifluoromethyl)-1,2,4-oxadiazol-3-yl]phenyl]urea] returned a melting point of 124 to 127 °C. For the same compound, in data set [4], the pest or weed control at 200 ppm was not below 80%. Also, in data set [1], the pest or weed control at 200 ppm is not below 80%. In addition, in data set [2], the inhibition of growth at 20 ppm was not below 80%. Moreover, the pest or weed control at 100 ppm in data set [3] is not below 80%. Moreover, in data set [5], the pest or weed control at 200 ppm was not below 80%.
The compound `CCC(=O)N(C)c1ccc(-c2noc(C(F)(F)F)n2)cc1` [Compound 2.17, N-methyl-N-[4-[5-(trifluoromethyl)-1,2,4-oxadiazol-3-yl]phenyl] propanamide] yielded a melting point of 78 to 86 °C. For the same compound, in data set [4], the pest or weed control at 200 ppm is not below 80%. Besides, the pest or weed control at 200 ppm in data set [1] was not below 80%. Besides, in data set [2], the inhibition of growth at 20 ppm is not below 80%. In data set [5], the pest or weed control at 200 ppm was not below 80%.
On to `O=C(Nc1ccc(-c2noc(C(F)(F)F)n2)cc1)N1CCCCO1` [Compound 2.23, N-[4-[5-(trifluoromethyl)-1,2,4-oxadiazol-3-yl]phenyl]oxazinane-2-carboxamide], for which the melting point is 117 to 120 °C. For the same compound, the pest or weed control at 200 ppm in data set [4] was not below 80%. In addition, the pest or weed control at 200 ppm in data set [1] was not below 80%. Besides, the inhibition of growth at 20 ppm in data set [2] is not below 80%. In addition, the pest or weed control at 200 ppm in data set [5] was not below 80%.
